Tests used:
[1] = molecular target: T1, human recombinant ETB receptor (Homo sapiens, UniProt P24530); assay: Inhibition of [125I]ET-1 binding to membranes from CHO cells carrying human ETB receptors
T1 construct: expressed in transfected cells; host or cells: CHO cells (microsomal membranes)
T1 sequence (P24530 27-442): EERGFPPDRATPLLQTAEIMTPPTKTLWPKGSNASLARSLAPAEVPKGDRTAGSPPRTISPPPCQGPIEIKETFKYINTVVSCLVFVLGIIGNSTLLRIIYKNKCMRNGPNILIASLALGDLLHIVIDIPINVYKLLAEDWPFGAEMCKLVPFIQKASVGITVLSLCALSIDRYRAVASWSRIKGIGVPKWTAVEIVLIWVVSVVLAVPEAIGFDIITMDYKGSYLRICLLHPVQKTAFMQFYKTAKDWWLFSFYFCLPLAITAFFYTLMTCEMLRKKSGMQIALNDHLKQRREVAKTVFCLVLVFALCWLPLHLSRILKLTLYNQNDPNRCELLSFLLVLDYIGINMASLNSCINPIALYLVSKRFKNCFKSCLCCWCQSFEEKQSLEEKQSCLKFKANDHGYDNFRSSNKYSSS

[2] = molecular target: T2, human recombinant ETA receptor (Homo sapiens, UniProt P25101); assay: Inhibition of [125I]ET-1 binding to membranes from CHO cells carrying human ETA receptors
T2 construct: expressed in transfected cells; host or cells: CHO cells (microsomal membranes)
T2 sequence (P25101 21-427): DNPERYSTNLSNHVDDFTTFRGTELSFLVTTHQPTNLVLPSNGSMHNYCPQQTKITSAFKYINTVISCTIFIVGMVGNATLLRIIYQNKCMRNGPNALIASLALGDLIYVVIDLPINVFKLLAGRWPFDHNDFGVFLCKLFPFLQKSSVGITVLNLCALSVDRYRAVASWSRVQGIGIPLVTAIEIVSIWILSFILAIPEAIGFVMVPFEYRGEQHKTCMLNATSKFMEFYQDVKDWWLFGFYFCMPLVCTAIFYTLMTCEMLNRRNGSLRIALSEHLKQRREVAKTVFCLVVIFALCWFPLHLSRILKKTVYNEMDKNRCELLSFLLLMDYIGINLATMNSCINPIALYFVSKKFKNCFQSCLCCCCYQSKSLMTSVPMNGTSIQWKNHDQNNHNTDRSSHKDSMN

Compound	IC50 [1]	IC50 [2]
COc1ccc(Cl)c(Oc2c(NS(=O)(=O)NCc3ccccc3)ncnc2OCCOc2ncc(S(C)(=O)=O)cn2)c1 [Example 214, Benzylsulfamic acid [5-(2-chloro-5-methoxy-phenoxy)-6-[2-(5-methanesulfonyl-pyrimidin-2-yloxy)-ethoxy]-pyrimidin-4-yl]-amide]	241 nM	0.76 nM
COc1ccccc1Oc1c(NS(=O)(=O)NCc2ccccn2)nc(-c2ncccn2)nc1OCCOc1ncc(Br)cn1 [Example 156]	409 nM	18 nM
COc1ccccc1Oc1c(NS(=O)(=O)NCc2ccccc2)nc(-c2ccnc(-c3nnn[nH]3)c2)nc1OC [Example 207, benzylsulfamic acid [6-methoxy-5-(2-methoxy-phenoxy)-2-[2-(1H-tetrazol-5-yl)-pyridin-4-yl]-pyrimidin-4-yl]-amide]	> 1000 nM	17 nM
COc1cnc(OCCOc2nc(-c3ncccn3)nc(NS(=O)(=O)NCc3ccc(Cl)cc3)c2Oc2ccccc2OC)nc1 [Example 55]	80 nM	5.2 nM
COc1cccc(CNS(=O)(=O)Nc2nc(-c3ncccn3)nc(OCCOc3ncccn3)c2Oc2ccccc2OC)c1 [Example 171]	61 nM	11 nM
O=S(=O)(NCC1CC1)Nc1ncnc(OCCOc2ncc(Br)cn2)c1-c1ccc(Cl)cc1 [Example 112]	257 nM	0.52 nM
COc1ccccc1Oc1c(NS(=O)(=O)NCC2CCCCC2)nc(-c2ccncc2)nc1OCCOc1ncc(Br)cn1 [Example 130]	347 nM	3.7 nM
COc1ccccc1Oc1c(NS(=O)(=O)NCc2ccccc2)nc(C2CC2)nc1OCCOc1ncc(SC)cn1 [Example 90]	433 nM	7.4 nM
COc1ccccc1Oc1c(NS(=O)(=O)Nc2ccc(C(C)C)cc2)nc(-c2ccncc2)nc1OC [Example 1, 4-i-propyl-phenyl sulfamic acid-[6-methoxy-5-(o-methoxyphenoxy)-2-(4-pyridyl)-pyrimidin-4-yl]-amide]	8430 nM	721 nM
COc1ccccc1Oc1c(NS(=O)(=O)NCc2cccs2)nc(-c2ccncc2)nc1OCCOc1ncc(Br)cn1 [Example 80]	> 1000 nM	10 nM
COc1ccccc1Oc1c(NS(=O)(=O)NCc2ccccc2)nc(N2CCOCC2)nc1OCCO [Example 205, benzylsulfamic acid [6-(2-hydroxy-ethoxy)-5-(2-methoxy-phenoxy)-2-morpholin-4-yl-pyrimidin-4-yl]-amide]	623 nM	135 nM
Cc1cnc(OCCOc2ncnc(NS(=O)(=O)NCc3ccccc3)c2-c2ccc(Cl)cc2)nc1 [Example 16]	8450 nM	45 nM
COc1ccc(CNS(=O)(=O)Nc2nc(-c3ncccn3)nc(OCCOc3ncc(Br)cn3)c2Oc2ccccc2OC)cc1 [Example 48]	46.6 nM	1.46 nM
COc1ccccc1Oc1c(NS(=O)(=O)NCc2ccc(F)cc2)nc(-c2ncccn2)nc1OCCOc1ncc(Br)cn1 [Example 142]	108 nM	2.6 nM
COc1ccccc1Oc1c(NS(=O)(=O)NC2CC2)nc(-c2ccncc2)nc1OCCOc1ncc(Br)cn1 [Example 202]	351 nM	9.6 nM
C#CCOc1nc(-c2ccncc2)nc(NS(=O)(=O)NCc2ccc(OC)cc2)c1Oc1ccccc1OC [Example 160]	3220 nM	11 nM
COc1ccccc1Oc1c(NS(=O)(=O)NCc2ccccc2)nc(S(C)(=O)=O)nc1OCCO [Example 204, Benzylsulfamic acid [6-(2-hydroxy-ethoxy)-2-methanesulfonyl-5-(2-methoxy-phenoxy)-pyrimidin-4-yl]-amide]	1050 nM	390 nM
COc1ccccc1Oc1c(NS(=O)(=O)NCc2ccc(Cl)cc2)nc(-c2ncccn2)nc1OCCOC(=O)Nc1ccccn1 [Example 57]	35.8 nM	4.9 nM
COc1ccccc1Oc1c(NS(=O)(=O)NCc2ccc3c(c2)OCO3)nc(-c2ccncc2)nc1OC [Example 149]	1320 nM	15 nM
Cc1ccc(-c2c(NS(=O)(=O)NCc3ccccc3)nc(-c3ccncc3)nc2OCCOC(=O)Nc2ccccn2)cc1 [Example 34]	3270 nM	23 nM
COc1ccccc1Oc1c(NS(=O)(=O)NCc2ccco2)nc(-c2ncccn2)nc1OCCOc1ncc(Br)cn1 [Example 60]	232 nM	3.4 nM
COc1ccccc1Oc1c(NS(=O)(=O)NCc2cccs2)nc(-c2ccncc2)nc1OCCOC(=O)Nc1ccccn1 [Example 81]	274 nM	3.6 nM

Compound	IC50 [1]	IC50 [2]
COc1ccccc1Oc1c(NS(=O)(=O)NCc2ccccc2)ncnc1OCCOC(=O)Nc1ccccn1 [Example 98]	159 nM	2.1 nM
COc1cccc(CNS(=O)(=O)Nc2nc(-c3ncccn3)nc(OCCOc3ncc(Br)cn3)c2Oc2ccccc2OC)c1 [Example 170]	42 nM	1.7 nM
COc1ccccc1Oc1c(NS(=O)(=O)Nc2ccc(C(C)C)cc2)nc(-c2ccncc2)nc1OCCO [Example 3, 4-i-propyl-phenyl sulfamic acid-[6-(2-hydroxy-ethoxy)-5-(o-methoxyphenoxy)-2-(4-pyridyl)-pyrimidin-4-yl]-amide]	744 nM	1380 nM
COc1ccccc1Oc1c(NS(=O)(=O)NCCc2ccccc2)nc(-c2ccncc2)nc1OCCOc1ncc(Br)cn1 [Example 182]	1870 nM	29 nM
COc1cnc(OCCOc2nc(-c3ncccn3)nc(NS(=O)(=O)NC3CC3)c2Oc2ccccc2OC)nc1 [Example 200]	310 nM	23 nM
COc1ccc(CNS(=O)(=O)Nc2nc(-c3ncccn3)nc(OCCOc3ncc(Br)cn3)c2Oc2ccccc2OC)cc1OC [Example 166]	3 nM	1 nM
CCCCNS(=O)(=O)Nc1ncnc(OCCOc2ncc(Br)cn2)c1-c1ccc(Cl)cc1 [Example 117]	518 nM	0.45 nM
COc1ccccc1Oc1c(NS(=O)(=O)NCCc2ccccc2)nc(-c2ccncc2)nc1OCCOC(=O)Nc1ccccc1 [Example 181]	224 nM	14.3 nM
COc1cnc(OCCOc2ncnc(NS(=O)(=O)NCC3CC3)c2-c2ccc(Cl)cc2)nc1 [Example 113]	581 nM	4.26 nM
COc1ccc(CNS(=O)(=O)Nc2ncnc(OCCOc3ncc(Br)cn3)c2Oc2cc(OC)ccc2Cl)cc1 [Example 163]	80 nM	0.44 nM
C=CCOc1nc(-c2ccncc2)nc(NS(=O)(=O)Nc2ccc(C(C)C)cc2)c1Oc1ccccc1OC [Example 2, 4-i-propyl-phenyl sulfamic acid-[6-allyloxy-5-(o-methoxyphenoxy)-2-(4-pyridyl)-pyrimidin-4-yl]-amide]	8740 nM	2190 nM
COc1ccccc1Oc1c(NS(=O)(=O)NCc2ccccc2)ncnc1OCCOc1ncc(SC)cn1 [Example 97]	92 nM	1.55 nM
CSc1cnc(OCCOc2nc(-c3ccncc3)nc(NS(=O)(=O)NCc3ccccc3)c2-c2ccc(Cl)cc2)nc1 [Example 110]	> 1000 nM	2.3 nM
COc1cnc(OCCOc2nc(-c3ccncc3)nc(NS(=O)(=O)NCc3ccccc3)c2-c2ccc(Cl)cc2)nc1 [Example 111]	3750 nM	12.3 nM
COc1ccccc1Oc1c(NS(=O)(=O)Nc2ccc(C)cn2)nc(-c2ccncc2)nc1OC [Example 8, 5-methyl-pyridine-2-sulfamic acid-[6-methoxy-5-(o-methoxy-phenoxy)-2-(4-pyridyl)-4-pyrimidinyl]-amide]	> 10000 nM	1160 nM
CCNS(=O)(=O)Nc1ncnc(OCCOc2ncc(SC)cn2)c1-c1ccc(Br)cc1 [Example 105]	203 nM	0.69 nM
O=S(=O)(NCc1ccccc1)Nc1nc(-c2ncccn2)nc(OCCOc2ncc(Br)cn2)c1-c1ccccc1 [Example 26]	> 10000 nM	54 nM
COc1ccccc1Oc1c(NS(=O)(=O)Nc2ccc(C(C)C)cc2)nc(-c2ccncc2)nc1OCCOc1ccc(C(F)(F)F)cn1 [Example 6, 4-i-propyl-phenyl sulfamic acid-[6-[2-(5-trifluoromethyl-pyridin-2-yloxy)-ethoxy]-5-(o-methoxy-phenoxy)-2-(4-pyridyl)-pyrimidin-4-yl]-amide]	7240 nM	286 nM
COc1ccccc1Oc1c(NS(=O)(=O)NCc2ccccc2)nc(-c2ncccn2)nc1OCCOc1ncccn1 [Example 39]	524 nM	32.7 nM
COc1ccccc1Oc1c(NS(=O)(=O)Nc2ccc(C(C)(C)C)cc2)nc(-c2ccncc2)nc1OCCO [Example 10, 4-t-butyl-phenyl sulfamic acid-[6-(2-hydroxy-ethoxy)-5-(o-methoxy-phenoxy)-2-(4-pyridyl)-4-pyrimidinyl]-amide]	193 nM	2870 nM
O=S(=O)(NCc1ccccc1)Nc1nc(-c2ccncc2)nc(OCCOc2ncc(Br)cn2)c1-c1ccc(Cl)cc1 [Example 109]	> 1000 nM	1.94 nM
